Among the data in patent US20260297081A1, “COMPOUNDS AND METHODS OF TREATING CANCERS” (Cullgen Inc., priority 2023, published 2026) are IC50 and activity values, retold here.

A value given as a limit tells only on which side of the number the result lay.

In assay [1] the test system is MCF7 cells. The experiment in a line: Anti-proliferation (viability) of MCF7 cells (Table 7, FIG. 2B). The class given is cell-based. Particulars: Homo sapiens, MCF7, MCF7 cells, 3-6 days, 10-point serial dilution; read-out: GI IC50 in MCF-7.
The target of assay [2] is CDK4 (Homo sapiens, UniProt P11802+Q16531). The experiment in a line: HiBiT detection of HiBiT-tagged CDK4 protein level in MCF7 cells, 16 hours (Table 8). The format is cell-based. More on the design: expressed in transfected cells; host or cells: MCF7. Particulars: MCF7 cells stably expressing HiBiT tagged target proteins; for activity at 0.01 µM: 10 nM, read-out: % CDK4 Relative Level (10 nM); for activity at 0.1 µM: 100 nM, read-out: % CDK4 Relative Level (100 nM). The procedure:
HiBiT detection system quantitatively measures total amounts of HiBiT-tagged proteins using a luminescent based method. MCF7 cells stably expressing HiBiT tagged target proteins were treated with heterobifunctional compounds at indicated concentrations for 16 hours, then lysed with Nano-Glo HiBiT Lytic detection reagents.

CDK4, sequence (P11802 whole entry): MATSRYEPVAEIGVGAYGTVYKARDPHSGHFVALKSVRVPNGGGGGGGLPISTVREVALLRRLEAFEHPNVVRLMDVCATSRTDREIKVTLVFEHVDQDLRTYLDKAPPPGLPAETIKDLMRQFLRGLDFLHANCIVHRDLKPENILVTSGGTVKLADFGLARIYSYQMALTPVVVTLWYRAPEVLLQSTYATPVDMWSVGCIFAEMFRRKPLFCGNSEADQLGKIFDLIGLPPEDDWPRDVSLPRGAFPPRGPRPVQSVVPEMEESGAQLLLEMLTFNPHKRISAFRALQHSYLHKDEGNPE
CDK4, sequence (P24385 whole entry partner): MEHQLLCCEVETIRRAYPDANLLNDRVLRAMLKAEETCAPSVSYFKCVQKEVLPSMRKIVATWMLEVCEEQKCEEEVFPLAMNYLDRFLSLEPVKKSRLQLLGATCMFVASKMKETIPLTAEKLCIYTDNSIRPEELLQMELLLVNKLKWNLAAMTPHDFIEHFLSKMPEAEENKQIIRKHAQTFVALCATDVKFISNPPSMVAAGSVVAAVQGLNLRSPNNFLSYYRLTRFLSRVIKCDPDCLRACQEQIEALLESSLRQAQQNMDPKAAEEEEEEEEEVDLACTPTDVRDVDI
CDK4, sequence (Q16531 2-1140 limits assumed): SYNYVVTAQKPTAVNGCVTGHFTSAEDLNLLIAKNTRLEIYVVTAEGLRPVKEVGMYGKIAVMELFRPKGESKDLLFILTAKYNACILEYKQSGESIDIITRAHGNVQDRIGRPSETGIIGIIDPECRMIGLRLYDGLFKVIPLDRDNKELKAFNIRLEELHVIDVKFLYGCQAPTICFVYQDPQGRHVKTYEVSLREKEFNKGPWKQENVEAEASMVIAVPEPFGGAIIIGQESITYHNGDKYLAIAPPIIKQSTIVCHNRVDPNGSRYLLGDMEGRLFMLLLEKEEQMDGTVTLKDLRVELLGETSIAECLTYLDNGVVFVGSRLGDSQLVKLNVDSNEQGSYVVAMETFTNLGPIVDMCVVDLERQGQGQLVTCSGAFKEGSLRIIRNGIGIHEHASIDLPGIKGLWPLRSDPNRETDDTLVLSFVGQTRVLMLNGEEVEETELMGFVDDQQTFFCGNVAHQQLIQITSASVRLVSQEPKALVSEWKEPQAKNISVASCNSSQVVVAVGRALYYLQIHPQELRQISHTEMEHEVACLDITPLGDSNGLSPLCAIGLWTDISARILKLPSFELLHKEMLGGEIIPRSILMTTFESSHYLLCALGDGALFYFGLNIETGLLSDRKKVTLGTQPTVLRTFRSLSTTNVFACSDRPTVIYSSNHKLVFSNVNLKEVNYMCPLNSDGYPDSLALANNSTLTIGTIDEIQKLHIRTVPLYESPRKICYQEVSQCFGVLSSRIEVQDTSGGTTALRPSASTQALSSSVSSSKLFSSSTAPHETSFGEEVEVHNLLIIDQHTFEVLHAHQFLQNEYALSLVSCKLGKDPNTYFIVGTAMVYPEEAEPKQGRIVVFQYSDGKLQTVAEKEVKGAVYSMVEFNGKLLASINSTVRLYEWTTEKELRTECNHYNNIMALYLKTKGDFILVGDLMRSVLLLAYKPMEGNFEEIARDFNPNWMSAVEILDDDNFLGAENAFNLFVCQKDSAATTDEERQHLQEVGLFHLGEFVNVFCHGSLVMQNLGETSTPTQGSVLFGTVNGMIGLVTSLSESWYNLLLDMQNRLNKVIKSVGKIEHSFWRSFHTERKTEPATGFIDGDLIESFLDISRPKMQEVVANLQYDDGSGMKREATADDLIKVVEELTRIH

Consider `CNc1ccc(C(=O)Nc2ccc(N(C)C)nn2)c(NCCOCCC(=O)N2CCN(c3ccc(Nc4ncc5cc(C(=O)N(C)C)n(C6CCCC6)c5n4)nc3)CC2)n1` [CPD-622, 7-cyclopentyl-2-((5-(4-(3-(2-((3-((6-(dimethylamino)pyridazin-3-yl)carbamoyl)-6-(methylamino)pyridin-2-yl)amino)ethoxy)propanoyl)piperazin-1-yl)pyridin-2-yl)amino)-N,N-dimethyl-7H-pyrrolo[2,3-d]pyrimidine-6-carboxamide], for which the IC50 in assay [1] was above 100 nM. In assay [2], the activity at 0.01 µM was in the range of 55 to 85% and the activity at 0.1 µM fell in the range of 55 to 85%.

On to `CNc1ccc(C(=O)Nc2ccc(N(C)C)nn2)c(NCCOCCOCCC(=O)N2CCN(c3ccc(Nc4ncc5cc6n(c5n4)C4(CCCCC4)CNC6=O)nc3)CC2)n1` [CPD-639, N-(6-(dimethylamino)pyridazin-3-yl)-6-(methylamino)-2-((2-(2-(3-oxo-3-(4-(6-((6′-oxo-7′,8′-dihydro-6′H-spiro[cyclohexane-1,9′-pyrazino[1′,2′:1,5]pyrrolo[2,3-d]pyrimidin]-2′-yl)amino)pyridin-3-yl)piperazin-1-yl)propoxy)ethoxy)ethyl)amino)nicotinamide], for which the IC50 in assay [1] is above 100 nM. Besides, in assay [2], the activity at 0.01 µM is above 85% and the activity at 0.1 µM was above 85%.

`CC(=O)c1c(C)c2cnc(Nc3ccc(CN4CCN(CC(=O)N5CCC6(CCC(Nc7nc(C8CC8)ccc7C(=O)Nc7ccc(N(C)C)nn7)C6)C5)CC4)cn3)nc2n(C2CCCC2)c1=O` (stereo not drawn) [CPD-581, 2-((2-(2-(4-((6-((6-acetyl-8-cyclopentyl-5-methyl-7-oxo-7,8-dihydropyrido[2,3-d]pyrimidin-2-yl)amino)pyridin-3-yl)methyl)piperazin-1-yl)acetyl)-2-azaspiro[4.4]nonan-7-yl)amino)-6-cyclopropyl-N-(6-(dimethylamino)pyridazin-3-yl)nicotinamide]: the IC50 in assay [1] was below 50 nM. Moreover, in assay [2], the activity at 0.01 µM was in the range of 55 to 85% and the activity at 0.1 µM is 55 to 85%.

Turning to `CNc1ccc(C(=O)Nc2ccc(N(C)C)nn2)c(NCCCCNC(=O)CN2CCN(c3ccc(Nc4ncc5cc(C(=O)N(C)C)n(C6CCCC6)c5n4)nc3)CC2)n1` [CPD-626, 7-cyclopentyl-2-((5-(4-(2-((4-((3-((6-(dimethylamino)pyridazin-3-yl)carbamoyl)-6-(methylamino)pyridin-2-yl)amino)butyl)amino)-2-oxoethyl)piperazin-1-yl)pyridin-2-yl)amino)-N,N-dimethyl-7H-pyrrolo[2,3-d]pyrimidine-6-carboxamide], the IC50 in assay [1] was above 100 nM. In assay [2], the activity at 0.01 µM lay in the range of 55 to 85% and the activity at 0.1 µM lay in the range of 55 to 85%.

For the compound `CC(=O)c1c(C)c2cnc(Nc3ccc(CN4CCN(C(C)C(=O)NC5CC6(C5)CC(Nc5nc(NC(C)C)ccc5C(=O)Nc5ccc(N(C)C)nn5)C6)CC4)cn3)nc2n(C2CCCC2)c1=O` (stereo not drawn) [CPD-585, 2-((6-(2-(4-((6-((6-acetyl-8-cyclopentyl-5-methyl-7-oxo-7,8-dihydropyrido[2,3-d]pyrimidin-2-yl)amino)pyridin-3-yl)methyl)piperazin-1-yl)propanamido)spiro[3.3]heptan-2-yl)amino)-N-(6-(dimethylamino)pyridazin-3-yl)-6-(isopropylamino)nicotinamide], the IC50 in assay [1] is below 50 nM. In assay [2], the activity at 0.01 µM lay within 55 to 85% and the activity at 0.1 µM lay in the range of 55 to 85%.

In the case of `CC(=O)c1c(C)c2cnc(Nc3ccc(CN4CCN(CC(=O)NC5CC6(C5)CC(Nc5nc(NC(C)C)ccc5C(=O)Nc5cc7n(n5)CCC7)C6)CC4)cn3)nc2n(C2CCCC2)c1=O` (stereo not drawn) [CPD-584, 2-((6-(2-(4-((6-((6-acetyl-8-cyclopentyl-5-methyl-7-oxo-7,8-dihydropyrido[2,3-d]pyrimidin-2-yl)amino)pyridin-3-yl)methyl)piperazin-1-yl)acetamido)spiro[3.3]heptan-2-yl)amino)-N-(5,6-dihydro-4H-pyrrolo[1,2-b]pyrazol-2-yl)-6-(isopropylamino) nicotinamide], the IC50 in assay [1] is below 50 nM. In assay [2], the activity at 0.01 µM fell in the range of 55 to 85% and the activity at 0.1 µM lay within 55 to 85%.

For `CC(C)Nc1ccc(C(=O)Nc2ccc(N(C)C)nn2)c(NC2CC3(C2)CN(C(=O)CN2CCN(Cc4ccc(Nc5ncc6cc7n(c6n5)C5(CCCCC5)CNC7=O)nc4)CC2)C3)n1` [CPD-557, N-(6-(dimethylamino)pyridazin-3-yl)-6-(isopropylamino)-2-((2-(2-(4-((6-((6′-oxo-7′,8′-dihydro-6′H-spiro[cyclohexane-1,9′-pyrazino[1′,2′:1,5]pyrrolo[2,3-d]pyrimidin]-2′-yl)amino)pyridin-3-yl)methyl)piperazin-1-yl)acetyl)-2-azaspiro[3.3]heptan-6-yl)amino)nicotinamide], the IC50 in assay [1] was above 100 nM. Also, in assay [2], the activity at 0.01 µM was above 85% and the activity at 0.1 µM is above 85%.

As to `CNc1ccc(C(=O)Nc2ccc(N(C)C)nn2)c(NCCCCCC(=O)N2CCN(Cc3ccc(Nc4ncc(F)c(-c5cc(F)c6nc(C)n(C(C)C)c6c5)n4)nc3)CC2)n1` [CPD-603, N-(6-(dimethylamino)pyridazin-3-yl)-2-((6-(4-((6-((5-fluoro-4-(4-fluoro-1-isopropyl-2-methyl-1H-benzo[d]imidazol-6-yl)pyrimidin-2-yl)amino)pyridin-3-yl)methyl)piperazin-1-yl)-6-oxohexyl)amino)-6-(methylamino)nicotinamide], in assay [1], the IC50 was above 100 nM. Also, in assay [2], the activity at 0.01 µM lay within 55 to 85% and the activity at 0.1 µM lay in the range of 55 to 85%.

Consider `CCc1ccc(C(=O)Nc2ccc(N(C)C)nn2)c(NC2CC3(CC(NC(=O)CN4CCN(Cc5ccc(Nc6ncc7c(C)c(C(C)=O)c(=O)n(C8CCCC8)c7n6)nc5)CC4)C3)C2)n1` (stereo not drawn) [CPD-578, 2-((6-(2-(4-((6-((6-acetyl-8-cyclopentyl-5-methyl-7-oxo-7,8-dihydropyrido[2,3-d]pyrimidin-2-yl)amino)pyridin-3-yl)methyl)piperazin-1-yl)acetamido)spiro[3.3]heptan-2-yl)amino)-N-(6-(dimethylamino)pyridazin-3-yl)-6-ethylnicotinamide], for which the IC50 in assay [1] is below 50 nM. Further, in assay [2], the activity at 0.01 µM is 55 to 85% and the activity at 0.1 µM fell in the range of 55 to 85%.

For the compound `CNc1ccc(C(=O)Nc2ccc(N(C)C)nn2)c(NCCCCCCC(=O)N2CCN(c3ccc(Nc4ncc5cc(C(=O)N(C)C)n(C6CCCC6)c5n4)nc3)CC2)n1` [CPD-620, 7-cyclopentyl-2-((5-(4-(7-((3-((6-(dimethylamino)pyridazin-3-yl)carbamoyl)-6-(methylamino)pyridin-2-yl)amino)heptanoyl)piperazin-1-yl)pyridin-2-yl)amino)-N,N-dimethyl-7H-pyrrolo[2,3-d]pyrimidine-6-carboxamide], the IC50 in assay [1] is above 100 nM. In assay [2], the activity at 0.01 µM was in the range of 55 to 85% and the activity at 0.1 µM was 55 to 85%.

On to `CC(=O)c1c(C)c2cnc(Nc3ccc(N4CCC5(CCN(CC(=O)N6CC7(CC(Nc8nc(NC(C)C)ccc8C(=O)Nc8ccc(N(C)C)nn8)C7)C6)C5)C4)cn3)nc2n(C2CCCC2)c1=O` (stereo not drawn) [CPD-448, 2-((2-(2-(7-(6-((6-acetyl-8-cyclopentyl-5-methyl-7-oxo-7,8-dihydropyrido[2,3-d]pyrimidin-2-yl)amino)pyridin-3-yl)-2,7-diazaspiro[4.4]nonan-2-yl)acetyl)-2-azaspiro[3.3]heptan-6-yl)amino)-N-(6-(dimethylamino)pyridazin-3-yl)-6-(isopropylamino)nicotinamide], for which the IC50 in assay [1] was below 50 nM. In assay [2], the activity at 0.01 µM fell in the range of 55 to 85% and the activity at 0.1 µM lay in the range of 55 to 85%.

As to `CCc1ccc(C(=O)Nc2ccc(N(C)C)nn2)c(NC23CC(C(=O)N4CCC(N5CCN(c6ccc(Nc7ncc8c(C)c(C(C)=O)c(=O)n(C9CCCC9)c8n7)nc6)CC5)C4)(C2)C3)n1` (stereo not drawn) [CPD-577, 2-((3-(3-(4-(6-((6-acetyl-8-cyclopentyl-5-methyl-7-oxo-7,8-dihydropyrido[2,3-d]pyrimidin-2-yl)amino)pyridin-3-yl)piperazin-1-yl)pyrrolidine-1-carbonyl)bicyclo[1.1.1]pentan-1-yl)amino)-N-(6-(dimethylamino)pyridazin-3-yl)-6-ethylnicotinamide], the IC50 in assay [1] was below 50 nM. For the same compound, in assay [2], the activity at 0.01 µM is above 85% and the activity at 0.1 µM lay in the range of 55 to 85%.

As to `CC(=O)c1c(C)c2cnc(Nc3ccc(N4CCN(C5CCN(C(=O)C6(O)CCC(Nc7nc(NC(C)C)ccc7C(=O)Nc7ccc(N(C)C)nn7)CC6)C5)CC4)cn3)nc2n(C2CCCC2)c1=O` (stereo not drawn) [CPD-574, 2-((cis-4-(3-(4-(6-((6-acetyl-8-cyclopentyl-5-methyl-7-oxo-7,8-dihydropyrido[2,3-d]pyrimidin-2-yl)amino)pyridin-3-yl)piperazin-1-yl)pyrrolidine-1-carbonyl)-4-hydroxycyclohexyl)amino)-N-(6-(dimethylamino)pyridazin-3-yl)-6-(isopropylamino)nicotinamide], in assay [1], the concentration for half-maximal inhibition (IC50) is below 50 nM. Besides, in assay [2], the activity at 0.01 µM is above 85% and the activity at 0.1 µM lay within 55 to 85%.

Regarding `CCc1ccc(C(=O)Nc2ccc(N(C)C)nn2)c(N[C@H]2CC[C@H](C(=O)N3CCC(N4CCN(C5CCC(Nc6ncc7c(C)c(C(C)=O)c(=O)n(C8CCCC8)c7n6)CC5)CC4)C3)CC2)n1` (stereo partly drawn) [CPD-597, 2-((trans-4-(3-(4-(4-((6-acetyl-8-cyclopentyl-5-methyl-7-oxo-7,8-dihydropyrido[2,3-d]pyrimidin-2-yl)amino)cyclohexyl)piperazin-1-yl)pyrrolidine-1-carbonyl)cyclohexyl)amino)-N-(6-(dimethylamino)pyridazin-3-yl)-6-ethylnicotinamide], the IC50 in assay [1] was below 50 nM. Besides, in assay [2], the activity at 0.01 µM is above 85% and the activity at 0.1 µM was 55 to 85%.
